According to patent US20190134005A1 (BioMarin Pharmaceutical Inc., priority 2016, published 2019):

What follows are compounds tested against T1, human CGT (Homo sapiens, UniProt Q16880) (assay: Assay 1: CGT Enzymatic Assay (RapidFire/MS/MS, 0.01% Tween 80)). Conditions: Table 1, Compounds of Formula (I) and Formula (II); CGT enzymatic assay, C6-NBD-dihydro-galactosylceramide readout; read-out: IC50.
T1 sequence (Q16880 21-541): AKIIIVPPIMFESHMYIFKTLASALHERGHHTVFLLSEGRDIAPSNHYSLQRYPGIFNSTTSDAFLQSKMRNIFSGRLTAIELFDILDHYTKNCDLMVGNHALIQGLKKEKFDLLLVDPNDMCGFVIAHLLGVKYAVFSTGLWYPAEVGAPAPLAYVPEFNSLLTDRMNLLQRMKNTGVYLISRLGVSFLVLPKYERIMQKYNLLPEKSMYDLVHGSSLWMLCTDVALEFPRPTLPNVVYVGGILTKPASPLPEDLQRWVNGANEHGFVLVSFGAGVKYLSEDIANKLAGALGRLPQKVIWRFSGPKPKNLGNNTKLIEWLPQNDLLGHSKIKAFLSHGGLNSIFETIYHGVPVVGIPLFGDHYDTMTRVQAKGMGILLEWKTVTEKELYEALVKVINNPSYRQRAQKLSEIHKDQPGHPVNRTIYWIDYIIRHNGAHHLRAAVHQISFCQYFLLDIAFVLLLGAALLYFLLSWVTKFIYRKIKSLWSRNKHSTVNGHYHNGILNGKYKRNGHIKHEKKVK
Assay type: biochemical

With CC(C)c1c(-c2ccccc2)n(-c2ccc(Br)cc2)c(=O)n1-c1ccc(Br)cc1 [Compound 267, 1,3-bis(4-bromophenyl)-4-isopropyl-5-phenyl-1,3-dihydro-2H-imidazol-2-one] as the compound, how does the IC50 read?
The IC50 was < 1000 nM.

With Cc1ccc(N2C(=O)N(c3ccc(Cl)cc3)C3(COC3)C2(O)c2cccc(OC(F)(F)F)c2)cc1 (stereo not drawn) [Compound 299, 5-(4-chlorophenyl)-8-hydroxy-7-(p-tolyl)-8-(3-(trifluoromethoxy)phenyl)-2-oxa-5,7-diazaspiro[3.4]octan-6-one] as the compound, how does the IC50 read?
Its IC50 is < 1000 nM.

For Cc1ccc(N2C(=O)N(c3ccc(C#N)cc3)C(O)(c3cccc(C#N)c3)C2(C)C)cc1 (stereo not drawn) [Example 313, 3-(3-(4-cyanophenyl)-4-hydroxy-5,5-dimethyl-2-oxo-1-(p-tolyl)imidazolidin-4-yl)benzonitrile], which IC50 is on record?
The IC50 was < 1000 nM.

For COC[C@@]1(C)N(c2ccc(Cl)cc2)C(=O)N(c2ccc(Cl)cc2)[C@]1(O)c1cccc(OC(F)(F)F)c1 [Compound 296-4, (4S,5R)-1,3-bis(4-chlorophenyl)-4-hydroxy-5-(methoxymethyl)-5-methyl-4-(3-(trifluoromethoxy)phenyl)imidazolidin-2-one], which IC50 is on record?
Its IC50 is < 1000 nM.

How did the IC50 turn out when O=C1N(c2ccc(C(F)(F)F)cc2)C2(COC2)C(O)(c2cccc(OC(F)(F)F)c2)N1c1ccc(C(F)(F)F)cc1 (stereo not drawn) [Compound 302, 8-hydroxy-8-(3-(trifluoromethoxy)phenyl)-5,7-bis(4-(trifluoromethyl)phenyl)-2-oxa-5,7-diazaspiro[3.4]octan-6-one] was run?
The IC50 was < 1000 nM.

With COC[C@@]1(C)N(c2ccc(Cl)cc2)C(=O)N(c2ccc(Cl)cc2)[C@@]1(O)c1cccc(OC(F)(F)F)c1 [Compound 296-1, (4R,5R)-1,3-bis(4-chlorophenyl)-4-hydroxy-5-(methoxymethyl)-5-methyl-4-(3-(trifluoromethoxy)phenyl)imidazolidin-2-one] as the compound, how does the IC50 read?
Its IC50 is 1000 to 10000 nM.

Cc1ccc(N2C(=O)N(c3ccc(C#N)cc3)C(O)(c3cccc(C#N)c3)C23CCC3)cc1 (stereo not drawn) [Compound 282, 3-(7-(4-cyanophenyl)-8-hydroxy-6-oxo-5-(p-tolyl)-5,7-diazaspiro[3.4]octan-8-yl)benzonitrile] was tested. Which IC50 did it give?
Its IC50 is < 1000 nM.

Same assay, conditions: Table 1, Compounds of Formula (I) and Formula (II); CGT enzymatic assay; read-out: IC50

COc1cccc([C@@]2(C)C(O)N(c3ccc(Br)cc3)C(=O)N2c2ccc(Br)cc2)c1 (single isomer, unassigned) [Compound 126-1] was tested. Which IC50 did it give?
The IC50 was > 50000 nM.

CC1N(c2ccccc2)C(=O)N(c2ccc(Br)cc2)C1(O)c1cccc(OC(F)(F)F)c1 (stereo not drawn) [Example 229, 3-(4-bromophenyl)-4-hydroxy-5-methyl-1-phenyl-4-(3-(trifluoromethoxy)phenyl)imidazolidin-2-one] was tested. Which IC50 did it give?
Its IC50 is < 1000 nM.

Which IC50 does the source give for CC[C@@H]1N(c2ccc(F)cc2)C(=O)N(c2ccc(F)cc2)C1(O)c1cccc(C(F)(F)F)c1 (single isomer, unassigned) [Compound 139-1] here?
The IC50 was 1000 to 10000 nM.

For CCC1(O)[C@@H](c2ccccc2)N(c2ccc(Br)cc2)C(=O)N1c1ccc(Br)cc1 (stereo partly drawn) [Example 45-2], which IC50 is on record?
Its IC50 is 10000 to 50000 nM.

With O=C1N(c2ccc(Br)cc2)[C@@H](C2CC2)C(O)(c2ccccc2)N1c1ccc(Br)cc1 (stereo partly drawn) [Compound 115-1, (5S)-1,3-bis(4-bromophenyl)-5-cyclopropyl-4-hydroxy-4-phenylimidazolidin-2-one] as the compound, how does the IC50 read?
Its IC50 is < 1000 nM.

For O=C1N(c2ccc(Cl)cc2)[C@]2(CCOC2)[C@@](O)(c2cccc(OC(F)(F)F)c2)N1c1ccc(Cl)cc1 [Compound 234-2, (4S,5S)-1,3-bis(4-chlorophenyl)-4-hydroxy-4-(3-(trifluoromethoxy)phenyl)-7-oxa-1,3-diazaspiro[4.4]nonan-2-one], which IC50 is on record?
Its IC50 is < 1000 nM.

Which IC50 does the source give for CCCC[C@H]1N(c2ccc(Cl)cc2)C(=O)N(c2ccc(Cl)cc2)C1(O)c1cccc(C#N)c1 (stereo partly drawn) [Compound 116-2, 3-((5R)-5-butyl-1,3-bis(4-chlorophenyl)-4-hydroxy-2-oxoimidazolidin-4-yl)benzonitrile] here?
The IC50 was < 1000 nM.

Which IC50 does the source give for CCc1cccc(C2(O)C(C)N(c3ccc(Br)cc3)C(=O)N2c2ccc(Br)cc2)c1 (stereo not drawn) [Compound 68, 1,3-bis(4-bromophenyl)-4-(3-ethylphenyl)-4-hydroxy-5-methylimidazolidin-2-one] here?
The IC50 was < 1000 nM.

Which IC50 does the source give for CC[C@H]1N(c2ccc(F)cc2)C(=O)N(c2ccc(F)cc2)C1(O)c1cccc(C(F)(F)F)c1 (single isomer, unassigned) [Compound 139-2] here?
The IC50 was < 1000 nM.

With C[C@@H]1N(c2ccc(F)cc2)C(=O)N(c2ccc(F)cc2)C1(O)c1cccc(OC(F)(F)F)c1 (stereo partly drawn) [Compound 130-1, (5S)-1,3-bis(4-fluorophenyl)-4-hydroxy-5-methyl-4-(3-(trifluoromethoxy)phenyl)imidazolidin-2-one] as the compound, how does the IC50 read?
Its IC50 is < 1000 nM.

For CCC[C@H]1N(c2ccc(Cl)cc2)C(=O)N(c2ccc(Cl)cc2)C1(O)c1cccc(Cl)c1 (stereo partly drawn) [Compound 114-2, (5R)-4-(3-chlorophenyl)-1,3-bis(4-chlorophenyl)-4-hydroxy-5-propylimidazolidin-2-one], which IC50 is on record?
The IC50 was < 1000 nM.

CCC[C@H]1N(c2ccc(Cl)cc2)C(=O)N(c2ccc(Cl)cc2)C1(O)c1cccc(OC(F)(F)F)c1 (stereo partly drawn) [Compound 91-2, (5R)-1,3-bis(4-chlorophenyl)-4-hydroxy-5-propyl-4-(3-(trifluoromethoxy)phenyl)imidazolidin-2-one] was tested. Which IC50 did it give?
The IC50 was < 1000 nM.

For C[C@H]1N(c2ccc(Br)cc2)C(=O)N(c2ccc(Br)cc2)C1(O)c1cccs1 (stereo partly drawn) [Example 49-2], which IC50 is on record?
The IC50 was 1000 to 10000 nM.

With Cc1cccc(-c2c(C)n(-c3ccc(Cl)cc3)c(=O)n2-c2ccc(Cl)cc2)c1 [Compound 260, 1,3-bis(4-chlorophenyl)-4-methyl-5-(m-tolyl)-1,3-dihydro-2H-imidazol-2-one] as the compound, how does the IC50 read?
The IC50 was 1000 to 10000 nM.

With CCC1N(c2ccc(F)cc2)C(=O)N(c2ccc(F)cc2)C1(O)c1cccc(OC(F)(F)F)c1 (stereo not drawn) [Compound 131, 5-ethyl-1,3-bis(4-fluorophenyl)-4-hydroxy-4-(3-(trifluoromethoxy)phenyl)imidazolidin-2-one] as the compound, how does the IC50 read?
Its IC50 is < 1000 nM.

How did the IC50 turn out when C[C@]1(C(F)(F)F)N(c2ccc(Cl)cc2)C(=O)N(c2ccc(Cl)cc2)C1(O)c1cccc(OC(F)(F)F)c1 (single isomer, unassigned) [Example 159-1] was run?
Its IC50 is 1000 to 10000 nM.

With CCC[C@@H]1N(c2ccc(Br)cc2)C(=O)N(c2ccc(Br)cc2)C1(O)c1cccc(CC)c1 (stereo partly drawn) [Compound 88-1, (5S)-1,3-bis(4-bromophenyl)-4-(3-ethylphenyl)-4-hydroxy-5-propylimidazolidin-2-one] as the compound, how does the IC50 read?
Its IC50 is < 1000 nM.

N#Cc1cccc(C2(O)N(c3ccc(Cl)cc3)C(=O)N(c3ccc(Cl)cc3)[C@]23CCOC3)c1 (stereo partly drawn) [Example 221-1, 3-((5S)-1,3-bis(4-chlorophenyl)-4-hydroxy-2-oxo-7-oxa-1,3-diazaspiro[4.4]nonan-4-yl)benzonitrile] was tested. Which IC50 did it give?
The IC50 was < 1000 nM.

For CCC[C@@H]1N(c2ccc(Cl)cc2)C(=O)N(c2ccc(Cl)cc2)C1(O)c1cccc(Cl)c1 (stereo partly drawn) [Compound 114-1, (5S)-4-(3-chlorophenyl)-1,3-bis(4-chlorophenyl)-4-hydroxy-5-propylimidazolidin-2-one], which IC50 is on record?
Its IC50 is < 1000 nM.

For C[C@]1(c2ccccc2)N(c2ccc(Cl)cc2)C(=O)N(c2ccc(Cl)cc2)[C@]1(O)c1ccccc1 [Compound 121-3, (4S,5R)-1,3-bis(4-chlorophenyl)-4-hydroxy-5-methyl-4,5-diphenylimidazolidin-2-one], which IC50 is on record?
The IC50 was > 50000 nM.

For O=C1N(c2ccc(Cl)cc2)C2(CCC2)C(O)(c2cccc(OC(F)(F)F)c2)N1c1ccc(Cl)cc1 (stereo not drawn) [Compound 242, 5,7-bis(4-chlorophenyl)-8-hydroxy-8-(3-(trifluoromethoxy)phenyl)-5,7-diazaspiro[3.4]octan-6-one], which IC50 is on record?
Its IC50 is < 1000 nM.

With CC(O)c1cccc(C2(O)C(C)N(c3ccc(Cl)cc3)C(=O)N2c2ccc(Cl)cc2)c1 (stereo not drawn) [Compound 137, 1,3-bis(4-chlorophenyl)-4-hydroxy-4-(3-(1-hydroxyethyl)phenyl)-5-methylimidazolidin-2-one] as the compound, how does the IC50 read?
Its IC50 is < 1000 nM.

For C[C@@]1(c2cccc(Cl)c2)C(O)N(c2ccc(Cl)cc2)C(=O)N1c1ccc(Cl)cc1 (single isomer, unassigned) [Compound 149-2], which IC50 is on record?
Its IC50 is < 1000 nM.

With Cc1csc(C2(O)[C@H](C)N(c3ccc(Br)cc3)C(=O)N2c2ccc(Br)cc2)c1 (stereo partly drawn) [Compound 97-1, (5S)-1,3-bis(4-bromophenyl)-4-hydroxy-5-methyl-4-(4-methylthiophen-2-yl)imidazolidin-2-one] as the compound, how does the IC50 read?
The IC50 was 1000 to 10000 nM.

C[C@H]1N(c2ccc(Cl)cc2)C(=O)N(c2ccc(Cl)cc2)C1(O)c1cccc(C#N)c1 (single isomer, unassigned) [Compound 99-2] was tested. Which IC50 did it give?
Its IC50 is < 1000 nM.

For O=C1N(c2ccc(Cl)cc2)CC(O)(c2ccccc2)N1c1ccc(Br)cc1 (stereo not drawn) [Example 38, 3-(4-bromophenyl)-1-(4-chlorophenyl)-4-hydroxy-4-phenylimidazolidin-2-one], which IC50 is on record?
Its IC50 is 10000 to 50000 nM.

Cc1ccc(N2C(=O)N(c3ccc(C)cc3)C(O)(c3cccc(OC(F)(F)F)c3)[C@@H]2C(C)C)cc1 (single isomer, unassigned) [Compound 235-1] was tested. Which IC50 did it give?
Its IC50 is < 1000 nM.

Which IC50 does the source give for CCc1c(-c2cccc(C#N)c2)n(-c2ccc(Cl)cc2)c(=O)n1-c1ccc(Cl)cc1 [Compound 258, 3-(1,3-bis(4-chlorophenyl)-5-ethyl-2-oxo-2,3-dihydro-1H-imidazol-4-yl)benzonitrile] here?
Its IC50 is < 1000 nM.

Which IC50 does the source give for O=C1N(c2ccc(Cl)cc2)[C@@]2(CCOC2)[C@@](O)(c2cccc(OC(F)(F)F)c2)N1c1ccc(Cl)cc1 [Compound 234-4, (4S,5R)-1,3-bis(4-chlorophenyl)-4-hydroxy-4-(3-(trifluoromethoxy)phenyl)-7-oxa-1,3-diazaspiro[4.4]nonan-2-one] here?
The IC50 was < 1000 nM.
